From patent US20210059959A1, “USE OF CANNABINOIDS IN THE TREATMENT OF MENTAL DISORDERS” (GW Pharma Limited, priority 2015, published 2021)

Tests used:
[1] = system: patients with bipolar affective disorder; conditions: two female patients, 30 days; one with olanzapine as adjunct, one CBD monotherapy; cited from earlier work
[2] = system: rats treated with MK-801; conditions: cited from earlier work
[3] = system: participants with schizophrenia or related psychotic disorder; assay: Positive and Negative Syndrome Scale (PANSS), double-blind placebo-controlled study of CBD as adjunctive therapy; type: in vivo, human
Procedure: Example 1 below describes the use of a highly purified cannabis extract comprising cannabidiol (CBD) in a human clinical trial. Example 1 describes data produced in a double-blind, randomised, placebo-controlled, parallel group study of highly purified CBD as adjunctive therapy in first line treatment of schizophrenia or related psychotic disorder.
An eight-week, multi-centre, double-blind, randomised, placebo-controlled, parallel group study was conducted with the aim to determine the efficacy, safety and tolerability of highly purified CBD as adjunctive therapy in first line treatment of schizophrenia or related psychotic disorder.
This study evaluated the efficacy of highly purified CBD compared with placebo on the participant's PANSS Total score, ‘P’, ‘N’, ‘G’, SANS and BACS scores.
Changes from baseline in PANSS scores (Total, ‘P’, ‘N’ and ‘G’), SANS and BACS were recorded at the start of the study (baseline) and at the end of treatment (after 6 weeks treatment with CBD or placebo).
For inclusion in the study participants were required to be male or female aged 18 to 65 years, diagnosed with schizophrenia or a related psychotic disorder (such as schizoaffective or schizophreniform disorder) as defined by the Diagnostic and Statistical Manual of Mental Disorders Version 4. Participants must have been treated for a minimum of four-weeks and be on a stable dose of their current antipsychotic medication. […] A PANSS score in excess of 60 infers that the patient has symptoms related to schizophrenia or related disorders.
The participants were randomised to one of two treatment groups which each consisted of 39 participants. Treatment was administered as either 5 ml CBD (100 mg/ml) oral solution to be taken twice daily or 5 ml matched placebo oral solution to be taken twice daily.
Positive and Negative Syndrome Scale (PANSS)
The PANSS is a medical scale completed by a trained rater and is used for measuring symptom severity of participants with schizophrenia or related psychotic disorder. The name refers to the two types of symptoms in schizophrenia, as defined by the American Psychiatric Association: positive symptoms, which refer to an excess or distortion of normal functions (e.g. hallucinations and delusions), and negative symptoms, which represent a diminution or loss of normal functions.
It is a 30 item rating instrument that assesses the positive and negative symptoms of schizophrenia as well as symptoms of general psychopathology. A PANSS Total score is derived from the sum of the 30 items and the PANSS items are also grouped into three subscales: Positive (‘P’), Negative (‘N’), and General (‘G’). Individual items are rated on a seven point scale, where 1=absent and 7=extreme. This scale was measured at each assessment visit (Visit 1-4).
The minimum score PANSS scoring system is 30 and patients with a score of higher than 60 are considered to still be suffering psychotic symptoms.
PANSS ‘P’ scale measures the severity of: • i) Delusions • ii) Conceptual disorganisation • iii) Hallucinations • iv) […] • v) Grandiosity • vi) Suspiciousness/persecution • vii) Hostility
PANSS ‘N’ scale measures the severity of: • i) Blunted affect • ii) Emotional withdrawal • iii) Poor rapport • iv) Passive/apathetic social withdrawal • v) Difficulty in abstract thinking • vi) Lack of spontaneity and flow of conversation • vii) Stereotyped thinking
PANSS ‘G’ psychopathology scale measures the severity of: • i) Somatic concern • ii) Anxiety • iii) Guilt feelings • iv) Tension • v) Mannerisms and posturing • vi) Depression • vii) Motor retardation • viii) Uncooperativeness • ix) Unusual thought content • x) Disorientation • xi) Poor attention • xii) Lack of judgment and insight • xiii) Disturbance of volition • xiv) Poor impulse control • xv) Preoccupation • xvi) Active social avoidance

[4] = CBD adjunct, 6 weeks, all patients
[5] = CBD adjunct, 6 weeks, patients on amisulpride
[6] = CBD adjunct, 6 weeks, patients on aripiprazole
[7] = CBD adjunct, 6 weeks, patients on olanzapine
[8] = CBD adjunct, 6 weeks, patients on other antipsychotics
[9] = CBD adjunct, 6 weeks, patients on quetiapine
[10] = CBD adjunct, 6 weeks, patients on risperidone

C=C(C)[C@@H]1CCC(C)=C[C@H]1c1c(O)cc(CCCCC)cc1O [CBD, Cannabidiol]
Efficacy in bipolar affective disorder [1]: ineffective
Effect on social deficits [2]: reverse social deficits
Change in baseline scores, PANSS total score [3, 4]: −11.4
Change in baseline scores, PANSS ‘G’ score [3, 4]: −5.3
Change in baseline scores, PANSS ‘N’ score [3, 4]: −3.1
Change in baseline scores, PANSS ‘P’ score [3, 4]: −3.1
Change in baseline scores, PANSS total [3, 5]: −11.3
Change in baseline scores, PANSS ‘P’ score [3, 5]: −4.0
Change in baseline scores, PANSS total [3, 6]: −12.3
Change in baseline scores, PANSS ‘P’ score [3, 6]: −3.8
Change in baseline scores, PANSS total [3, 7]: −17.5
Change in baseline scores, PANSS ‘P’ score [3, 7]: −3.9
Change in baseline scores, PANSS total [3, 8]: −10.3
Change in baseline scores, PANSS ‘P’ score [3, 8]: −1.4
Change in baseline scores, PANSS total [3, 9]: −7.5
Change in baseline scores, PANSS ‘P’ score [3, 9]: −1.7
Change in baseline scores, PANSS total [3, 10]: −7.8
Change in baseline scores, PANSS ‘P’ score [3, 10]: −2.6
Responder status for change in baseline scores, PANSS ‘P’ score ([3]; CBD adjunct, patients with >= 20% change from baseline, P = 0.0679 vs placebo): 42.9%
Responder status for change in baseline scores, PANSS total score ([3]; CBD adjunct, patients with >= 20% change from baseline, P = 0.0896 vs placebo): 28.6%
Responder status for change in baseline scores, PANSS ‘G’ score ([3]; CBD adjunct, patients with >= 20% change from baseline, P = 0.2598 vs placebo): 28.6%
Responder status for change in baseline scores, PANSS ‘N’ score ([3]; CBD adjunct, patients with >= 20% change from baseline, P = 0.7951 vs placebo): 26.2%
Change in baseline scores, PANSS ‘P’ score: difference ([3]; CBD vs placebo, all patients, P = 0.0188): (−1.4)
Change in baseline scores, PANSS total score: difference ([3]; CBD vs placebo, all patients, P = 0.1332): (−2.8)
Change in baseline scores, PANSS ‘G’ score: difference ([3]; CBD vs placebo, all patients, P = 0.1963): (−1.3)
Change in baseline scores, PANSS ‘N’ score: difference ([3]; CBD vs placebo, all patients, P = 0.8841): (−0.1)
Change in baseline scores, PANSS total: difference ([3]; CBD vs placebo, patients on amisulpride, P = 0.5543): (7.9)
Change in baseline scores, PANSS ‘P’ score: difference ([3]; CBD vs placebo, patients on amisulpride, P = 0.8241): (−0.5)
Change in baseline scores, PANSS ‘P’ score: difference ([3]; CBD vs placebo, patients on aripiprazole, P = 0.0345): (−3.1)
Change in baseline scores, PANSS total: difference ([3]; CBD vs placebo, patients on aripiprazole, P = 0.1220): (−6.2)
Change in baseline scores, PANSS total: difference ([3]; CBD vs placebo, patients on olanzapine, P = 0.0067): (−10.7)
Change in baseline scores, PANSS ‘P’ score: difference ([3]; CBD vs placebo, patients on olanzapine, P = 0.1434): (−1.5)
Change in baseline scores, PANSS total: difference ([3]; CBD vs placebo, patients on other antipsychotics, P = 0.2746): (−10.6)
Change in baseline scores, PANSS ‘P’ score: difference ([3]; CBD vs placebo, patients on other antipsychotics, P = 0.9550): (−0.2)
Change in baseline scores, PANSS total: difference ([3]; CBD vs placebo, patients on quetiapine, P = 0.6640): (5.1)
Change in baseline scores, PANSS ‘P’ score: difference ([3]; CBD vs placebo, patients on quetiapine, P = 0.7905): (0.6)
Change in baseline scores, PANSS ‘P’ score: difference ([3]; CBD vs placebo, patients on risperidone, P = 0.4625): (−0.8)
Change in baseline scores, PANSS total: difference ([3]; CBD vs placebo, patients on risperidone, P = 0.6470): (1.8)
